{"source": "paper PMC3160846", "about": "(PLoS ONE, 2011)", "assay_type_in_all_cases": "cell-based, Human", "key": {"A549 cells": {"test_system": "A549 cells", "assay": "Clonogenic assay, A549", "method": "(§1) Human lung adenocarcinoma A549 cells and NTUB1 bladder cancer cells were maintained in RPMI supplied with 10% fetal bovine serum. […] KB-derived MRP1-expressing cell line, KB-7D, was maintained in growth medium supplemented with 7 µM VP-16.\n(§2) Two hundred cells in logarithmic growth phase were seeded in a 6-well plate. The cells were exposed to various concentrations of the test drugs for a three-generation period. At the end of the incubation period, cells were fixed and stained with 50% ethanol containing 0.5% methylene blue for 30 min. The plates were washed five times with water and allowed to air-dry. Colonies were countered manually. […] Each value represents the average of at least three independent experiments run in triplicates."}, "HT29 cells": {"test_system": "HT29 cells", "assay": "Clonogenic assay, HT29", "method": "as §1, §2"}, "OECM-1 cells": {"test_system": "OECM-1 cells", "assay": "Clonogenic assay, OECM-1", "method": "as §1, §2"}, "HONE-1 cells": {"test_system": "HONE-1 cells", "assay": "Clonogenic assay, HONE-1", "method": "as §1, §2"}, "KB cells": {"test_system": "KB cells", "assay": "Clonogenic assay, KB", "method": "as §1, §2"}, "NTUB1 cells": {"test_system": "NTUB1 cells", "assay": "Clonogenic assay, NTUB1", "method": "as §1, §2"}, "MV4-11 cells": {"test_system": "MV4-11 cells", "assay": "Clonogenic assay, MV4-11", "method": "as §1, §2"}, "IM9 cells": {"test_system": "IM9 cells", "assay": "Clonogenic assay, IM9", "method": "as §1, §2"}, "KB-VIN10 cells": {"test_system": "KB-VIN10 cells", "assay": "Clonogenic assay, KB-VIN10", "method": "as §1, §2"}, "KB-S15 cells": {"test_system": "KB-S15 cells", "assay": "Clonogenic assay, KB-S15", "method": "as §1, §2"}, "NTU0.017 cells": {"test_system": "NTU0.017 cells", "assay": "Clonogenic assay, NTU0.017", "method": "as §1, §2"}}, "data": [{"smiles": "CO[C@@H](C(=O)N1Cc2n[nH]c(NC(=O)c3ccc(N4CCN(C)CC4)cc3)c2C1)c1ccccc1", "note": "[PHA-739358]", "values": [{"measurement": "Fold difference as compare to the IC50 of BPR1K653", "setting": "A549 cells; A549", "value": 6, "unit": "fold"}, {"measurement": "IC50", "setting": "A549 cells; Homo sapiens, A549, lung, p53 wild-type, MDR1 negative, read-out: IC50, anti-proliferative activity", "value": "56 ± 8", "unit": "nM"}, {"measurement": "Fold difference as compare to the IC50 of BPR1K653", "setting": "HT29 cells; HT29", "value": 4, "unit": "fold"}, {"measurement": "IC50", "setting": "HT29 cells; Homo sapiens, HT-29, HT29, colon, p53 mutant, MDR1 negative, read-out: IC50, anti-proliferative activity", "value": "48 ± 8", "unit": "nM"}, {"measurement": "IC50", "setting": "OECM-1 cells; Homo sapiens, OECM1, OECM-1, oral, p53 mutant, MDR1 negative, read-out: IC50, anti-proliferative activity", "value": "642 ± 68", "unit": "nM"}, {"measurement": "Fold difference as compare to the IC50 of BPR1K653", "setting": "OECM-1 cells; OECM-1", "value": 5, "unit": "fold"}, {"measurement": "Fold difference as compare to the IC50 of BPR1K653", "setting": "HONE-1 cells; HONE-1", "value": 5, "unit": "fold"}, {"measurement": "IC50", "setting": "HONE-1 cells; Homo sapiens, HONE1, HONE-1, oral, p53 mutant, MDR1 negative, read-out: IC50, anti-proliferative activity", "value": "59 ± 16", "unit": "nM"}, {"measurement": "Fold difference as compare to the IC50 of BPR1K653", "setting": "KB cells", "value": 33, "unit": "fold"}, {"measurement": "IC50", "setting": "KB cells; Homo sapiens, cervical, p53 wild-type, MDR1 negative (parental), read-out: IC50, anti-proliferative activity", "value": "400 ± 100", "unit": "nM"}, {"measurement": "IC50", "setting": "NTUB1 cells; Homo sapiens, NTUB1, bladder, MDR1 negative (parental), read-out: IC50, anti-proliferative activity", "value": "405 ± 134", "unit": "nM"}, {"measurement": "Fold difference as compare to the IC50 of BPR1K653", "setting": "NTUB1 cells; NTUB1", "value": 51, "unit": "fold"}, {"measurement": "IC50", "setting": "MV4-11 cells; Homo sapiens, MV4-11, leukemia, p53 mutant, MDR1 negative, read-out: IC50, anti-proliferative activity", "value": "86 ± 11", "unit": "nM"}, {"measurement": "Fold difference as compare to the IC50 of BPR1K653", "setting": "MV4-11 cells; MV4-11", "value": 17, "unit": "fold"}, {"measurement": "IC50", "setting": "IM9 cells; Homo sapiens, IM9, lymphoma, p53 wild-type, MDR1 negative, read-out: IC50, anti-proliferative activity", "value": "450 ± 12", "unit": "nM"}, {"measurement": "Fold difference as compare to the IC50 of BPR1K653", "setting": "IM9 cells; IM9", "value": 113, "unit": "fold"}, {"measurement": "IC50", "setting": "KB-VIN10 cells; Homo sapiens, KB-VIN10, vincristine resistant, MDR1 ↑, read-out: IC50, anti-proliferative activity", "value": "> 25000", "unit": "nM"}, {"measurement": "Fold difference as compare to the IC50 in the respective parental cells", "setting": "KB-VIN10 cells; KB-VIN10 vs KB", "value": "> 63", "unit": "fold"}, {"measurement": "IC50", "setting": "KB-S15 cells; Homo sapiens, KB-S15, paclitaxol resistant, MDR1 ↑, read-out: IC50, anti-proliferative activity", "value": 4700, "unit": "nM"}, {"measurement": "Fold difference as compare to the IC50 in the respective parental cells", "setting": "KB-S15 cells; KB-S15 vs KB", "value": 12, "unit": "fold"}, {"measurement": "IC50", "setting": "NTU0.017 cells; Homo sapiens, NTU0.017, paclitaxol resistant, MDR1 ↑, read-out: IC50, anti-proliferative activity", "value": "> 50000", "unit": "nM"}, {"measurement": "Fold difference as compare to the IC50 in the respective parental cells", "setting": "NTU0.017 cells; NTU0.017 vs NTUB1", "value": "> 123", "unit": "fold"}]}]}
